Results as given in ChEMBL document CHEMBL2440076, “New triarylpyrazoles as broad-spectrum anticancer agents: design, synthesis, and biological evaluation” (Eur J Med Chem, 2013).

Experiments:
Type in all cases: functional
A549 = test: Growth inhibition of human A549/ATCC cells assessed as cell growth at 3X10'-5 M after 48 hrs by sulforhodamine B assay; conditions: A549, 48 h, read-out: Activity
NCI-H522 = test: Growth inhibition of human NCI-H522 cells assessed as cell growth at 3X10'-9 M after 48 hrs by sulforhodamine B assay; conditions: NCI-H522, 48 h, read-out: Activity
SK-OV-3 [1] = test: Growth inhibition of human SKOV3 cells assessed as cell growth at 3X10'-7 M after 48 hrs by sulforhodamine B assay; conditions: SK-OV-3, 48 h, read-out: Activity
A498 = test: Growth inhibition of human A498 cells assessed as cell growth at 3X10'-7 M after 48 hrs by sulforhodamine B assay; conditions: A498, 48 h, read-out: Activity
M14 [2] = test: Growth inhibition of human M14 cells assessed as cell growth at 3X10'-8 M after 48 hrs by sulforhodamine B assay; conditions: M14, 48 h, read-out: Activity
786-0 = test: Growth inhibition of human 786-0 cells assessed as cell growth at 3X10'-6 M after 48 hrs by sulforhodamine B assay; conditions: 786-0, 48 h, read-out: Activity
MDA-MB-231 = test: Growth inhibition of human MDA-MB-231 cells assessed as cell growth at 3X10'-7 M after 48 hrs by sulforhodamine B assay; conditions: MDA-MB-231, 48 h, read-out: Activity
[3] = Growth inhibition of human NCI-ADR-RES cells assessed as cell growth at 3X10'-5 M after 48 hrs by sulforhodamine B assay; conditions: read-out: Activity
UO-31 [4] = test: Growth inhibition of human UO31 cells assessed as cell growth at 3X10'-6 M after 48 hrs by sulforhodamine B assay; conditions: UO-31, 48 h, read-out: Activity
COLO 205 [5] = test: Growth inhibition of human COLO205 cells assessed as cell growth at 3X10'-5 M after 48 hrs by sulforhodamine B assay; conditions: COLO 205, 48 h, read-out: Activity
SW-620 = test: Growth inhibition of human SW620 cells assessed as cell growth at 3X10'-6 M after 48 hrs by sulforhodamine B assay; conditions: SW-620, 48 h, read-out: Activity
HCT-116 = test: Growth inhibition of human HCT116 cells assessed as cell growth at 3X10'-9 M after 48 hrs by sulforhodamine B assay; conditions: HCT-116, 48 h, read-out: Activity
SK-OV-3 [6] = test: Growth inhibition of human SKOV3 cells assessed as cell growth at 3X10'-6 M after 48 hrs by sulforhodamine B assay; conditions: SK-OV-3, 48 h, read-out: Activity
HOP-92 [7] = test: Growth inhibition of human HOP92 cells assessed as cell growth at 3X10'-5 M after 48 hrs by sulforhodamine B assay; conditions: HOP-92, 48 h, read-out: Activity
M14 [8] = test: Growth inhibition of human M14 cells assessed as cell growth at 3X10'-5 M after 48 hrs by sulforhodamine B assay; conditions: M14, 48 h, read-out: Activity
LOX IMVI = test: Growth inhibition of human LOXIMVI cells assessed as cell growth at 3X10'-7 M after 48 hrs by sulforhodamine B assay; conditions: read-out: Activity
PC-3 = test: Growth inhibition of human PC3 cells assessed as cell growth at 3X10'-6 M after 48 hrs by sulforhodamine B assay; conditions: PC-3, 48 h, read-out: Activity
DU-145 = test: Growth inhibition of human DU145 cells assessed as cell growth at 3X10'-6 M after 48 hrs by sulforhodamine B assay; conditions: DU-145, 48 h, read-out: Activity
MOLT-4 = test: Growth inhibition of human MOLT4 cells assessed as cell growth at 3X10'-8 M after 48 hrs by sulforhodamine B assay; conditions: MOLT-4, 48 h, read-out: Activity
KM12 [9] = test: Growth inhibition of human KM12 cells assessed as cell growth at 3X10'-7 M after 48 hrs by sulforhodamine B assay; conditions: KM12, 48 h, read-out: Activity
U-251 = test: Growth inhibition of human U251 cells assessed as cell growth at 3X10'-7 M after 48 hrs by sulforhodamine B assay; conditions: U-251, 48 h, read-out: Activity
NCI-H322M = test: Growth inhibition of human NCI-H322M cells assessed as cell growth at 3X10'-7 M after 48 hrs by sulforhodamine B assay; conditions: read-out: Activity
HOP-92 [10] = test: Growth inhibition of human HOP92 cells assessed as cell growth at 3X10'-8 M after 48 hrs by sulforhodamine B assay; conditions: HOP-92, 48 h, read-out: Activity
KM12 [11] = test: Growth inhibition of human KM12 cells assessed as cell growth at 3X10'-6 M after 48 hrs by sulforhodamine B assay; conditions: KM12, 48 h, read-out: Activity
COLO 205 [12] = test: Growth inhibition of human COLO205 cells assessed as cell growth at 3X10'-7 M after 48 hrs by sulforhodamine B assay; conditions: COLO 205, 48 h, read-out: Activity
OVCAR-4 = test: Growth inhibition of human OVCAR4 cells assessed as cell growth at 3X10'-5 M after 48 hrs by sulforhodamine B assay; conditions: OVCAR-4, 48 h, read-out: Activity
OVCAR-5 = test: Growth inhibition of human OVCAR5 cells assessed as cell growth at 3X10'-6 M after 48 hrs by sulforhodamine B assay; conditions: OVCAR-5, 48 h, read-out: Activity
SF-539 = test: Growth inhibition of human SF539 cells assessed as cell growth at 3X10'-6 M after 48 hrs by sulforhodamine B assay; conditions: SF-539, 48 h, read-out: Activity
M14 [13] = test: Growth inhibition of human M14 cells assessed as cell growth at 3X10'-7 M after 48 hrs by sulforhodamine B assay; conditions: M14, 48 h, read-out: Activity
[14] = Growth inhibition of human Hs 578T cells assessed as cell growth at 3X10'-5 M after 48 hrs by sulforhodamine B assay; conditions: read-out: Activity
UO-31 [15] = test: Growth inhibition of human UO31 cells assessed as cell growth at 3X10'-5 M after 48 hrs by sulforhodamine B assay; conditions: UO-31, 48 h, read-out: Activity
K562 = test: Growth inhibition of human K562 cells assessed as cell growth at 3X10'-5 M after 48 hrs by sulforhodamine B assay; conditions: K562, 48 h, read-out: Activity
TK-10 = test: Growth inhibition of human TK10 cells assessed as cell growth at 3X10'-8 M after 48 hrs by sulforhodamine B assay; conditions: TK-10, 48 h, read-out: Activity
OVCAR-3 = test: Growth inhibition of human OVCAR3 cells assessed as cell growth at 3X10'-5 M after 48 hrs by sulforhodamine B assay; conditions: OVCAR-3, 48 h, read-out: Activity
M14 [16] = test: Growth inhibition of human M14 cells assessed as cell growth at 3X10'-9 M after 48 hrs by sulforhodamine B assay; conditions: M14, 48 h, read-out: Activity
COLO 205 [17] = test: Growth inhibition of human COLO205 cells assessed as cell growth at 3X10'-6 M after 48 hrs by sulforhodamine B assay; conditions: COLO 205, 48 h, read-out: Activity
SNB-75 = test: Growth inhibition of human SNB75 cells assessed as cell growth at 3X10'-6 M after 48 hrs by sulforhodamine B assay; conditions: SNB-75, 48 h, read-out: Activity

SMILES	growth at 30 µM (A549)	growth at 0.003 µM (NCI-H522)	growth at 0.3 µM (SK-OV-3 [1])	growth at 0.3 µM (A498)	growth at 0.03 µM (M14 [2])	growth at 3 µM (786-0)	growth at 0.3 µM (MDA-MB-231)	growth at 30 µM [3]	growth at 3 µM (UO-31 [4])	growth at 30 µM (COLO 205 [5])	growth at 3 µM (SW-620)	growth at 0.003 µM (HCT-116)	growth at 3 µM (SK-OV-3 [6])	growth at 30 µM (HOP-92 [7])	growth at 30 µM (M14 [8])	growth at 0.3 µM (LOX IMVI)	growth at 3 µM (PC-3)	growth at 3 µM (DU-145)	growth at 0.03 µM (MOLT-4)	growth at 0.3 µM (KM12 [9])	further results
O=C(Nc1cccc(-n2cc(-c3ccncc3)c(-c3ccc(Cl)c(O)c3)n2)c1)Nc1ccc(Cl)c(C(F)(F)F)c1	-29%	96%	95%	95%	101%	19%	69%	-1%	-3%	-90%	5%	105%	22%	-63%	-39%	87%	-15%	10%	116%	96%	growth at 0.3 µM (U-251): 82%; growth at 0.3 µM (NCI-H322M): 95%; growth at 0.03 µM (HOP-92 [10]): 76%; growth at 3 µM (KM12 [11]): 2%; growth at 0.3 µM (COLO 205 [12]): 101%; growth at 30 µM (OVCAR-4): 9%; growth at 3 µM (OVCAR-5): 33%; growth at 3 µM (SF-539): -14%; growth at 0.3 µM (M14 [13]): 94%; growth at 30 µM [14]: -8%; growth at 30 µM (UO-31 [15]): -28%; growth at 30 µM (K562): 1%; growth at 0.03 µM (TK-10): 103%; growth at 30 µM (OVCAR-3): -16%; growth at 0.003 µM (M14 [16]): 100%; growth at 3 µM (COLO 205 [17]): 42%
COc1cc(-c2nn(-c3cccc(NC(=O)Nc4ccc(Cl)c(C(F)(F)F)c4)c3)cc2-c2ccncc2)ccc1Cl	-5%	106%	103%	76%	109%	28%	85%	-5%	3%	-94%	17%	102%	21%	-46%	-66%	97%	-11%	23%	106%	95%	growth at 3 µM (SNB-75): 24%; growth at 0.3 µM (U-251): 90%; growth at 0.3 µM (NCI-H322M): 91%; growth at 0.03 µM (HOP-92 [10]): 74%; growth at 3 µM (KM12 [11]): 7%; growth at 0.3 µM (COLO 205 [12]): 101%; growth at 30 µM (OVCAR-4): -2%; growth at 3 µM (OVCAR-5): 49%; growth at 3 µM (SF-539): 33%; growth at 0.3 µM (M14 [13]): 100%; growth at 30 µM [14]: -8%; growth at 30 µM (UO-31 [15]): -28%; growth at 30 µM (K562): 1%; growth at 0.03 µM (TK-10): 102%; growth at 30 µM (OVCAR-3): -46%; growth at 0.003 µM (M14 [16]): 106%; growth at 3 µM (COLO 205 [17]): -49%
O=C(Nc1cccc(-n2cc(-c3ccncc3)c(-c3ccc(Cl)c(O)c3)n2)c1)Nc1cccc(C(F)(F)F)c1	11%	95%	105%	80%	98%	58%	95%	7%	37%	-14%	53%	96%	58%	-33%	-20%	97%	13%	33%	96%	97%	growth at 3 µM (SNB-75): 53%; growth at 0.3 µM (U-251): 97%; growth at 0.3 µM (NCI-H322M): 98%; growth at 0.03 µM (HOP-92 [10]): 77%; growth at 3 µM (KM12 [11]): 20%; growth at 0.3 µM (COLO 205 [12]): 109%; growth at 30 µM (OVCAR-4): 16%; growth at 3 µM (OVCAR-5): 97%; growth at 3 µM (SF-539): 54%; growth at 0.3 µM (M14 [13]): 100%; growth at 30 µM [14]: 11%; growth at 30 µM (UO-31 [15]): 11%; growth at 30 µM (K562): 6%; growth at 0.03 µM (TK-10): 98%; growth at 30 µM (OVCAR-3): -25%; growth at 0.003 µM (M14 [16]): 97%; growth at 3 µM (COLO 205 [17]): 90%
O=C(Nc1cccc(-n2cc(-c3ccncc3)c(-c3ccc(Cl)c(O)c3)n2)c1)Nc1ccc(Cl)c(Cl)c1	8%	96%	98%	94%	94%	74%	94%	6%	19%	-70%	23%	94%	13%	-31%	-28%	90%	6%	22%	99%	90%	growth at 3 µM (SNB-75): 20%; growth at 0.3 µM (U-251): 100%; growth at 0.3 µM (NCI-H322M): 113%; growth at 0.03 µM (HOP-92 [10]): 93%; growth at 3 µM (KM12 [11]): 9%; growth at 0.3 µM (COLO 205 [12]): 104%; growth at 30 µM (OVCAR-4): 17%; growth at 3 µM (OVCAR-5): 42%; growth at 3 µM (SF-539): 27%; growth at 0.3 µM (M14 [13]): 96%; growth at 30 µM [14]: -21%; growth at 30 µM (UO-31 [15]): 7%; growth at 30 µM (K562): 4%; growth at 0.03 µM (TK-10): 103%; growth at 30 µM (OVCAR-3): -37%; growth at 0.003 µM (M14 [16]): 93%; growth at 3 µM (COLO 205 [17]): 61%
COc1cc(-c2nn(-c3cccc(NC(=O)c4ccc(Cl)c(C(F)(F)F)c4)c3)cc2-c2ccncc2)ccc1Cl	16%	89%	103%	82%	96%	71%	81%	-19%	29%	-13%	55%	100%	71%	-8%	19%	86%	31%	67%	97%	95%	growth at 3 µM (SNB-75): 44%; growth at 0.3 µM (U-251): 91%; growth at 0.3 µM (NCI-H322M): 92%; growth at 0.03 µM (HOP-92 [10]): 85%; growth at 3 µM (KM12 [11]): 39%; growth at 0.3 µM (COLO 205 [12]): 99%; growth at 30 µM (OVCAR-4): 32%; growth at 3 µM (OVCAR-5): 88%; growth at 3 µM (SF-539): 57%; growth at 0.3 µM (M14 [13]): 94%; growth at 30 µM [14]: 5%; growth at 30 µM (UO-31 [15]): 11%; growth at 30 µM (K562): 11%; growth at 0.03 µM (TK-10): 93%; growth at 30 µM (OVCAR-3): -12%; growth at 0.003 µM (M14 [16]): 99%; growth at 3 µM (COLO 205 [17]): 74%
